For orientation: bioavailability means the share of a dose that reaches the circulation, judged against a reference dose that is usually intravenous. Read a high bioavailability as good availability. In general, Tmax refers to the time from dosing to the highest level. One may read the AUC(0-inf) as the area under the concentration-time curve extrapolated to infinity. As a reminder, the Cmax is the highest concentration seen after dosing. A word on the IC50: it is the concentration at which inhibition is half-maximal.

Data set [1] is described as follows: Oral bioavailability in Sprague-Dawley rat at 5 mg/kg. The class given is ADME, organism-based. Particulars: in vivo.
Data set [2] is described as follows: Terminal elimination half life in Sprague-Dawley rat at 1 mg/kg, iv. Particulars: in vivo, read-out: beta t1/2 (converted). The format is ADME, organism-based.
Data set [3] can be described thus: Tmax in Sprague-Dawley rat at 5 mg/kg, po. The class given is ADME, organism-based. The settings on record: in vivo.
Data set [4] is described as follows: AUCinfinity in Sprague-Dawley rat at 1 mg/kg, iv. Also noted: time infinity, dose 1 mg/kg, route iv. Particulars: in vivo. The format is ADME, organism-based.
The nature of data set [5]: Tmax in Sprague-Dawley rat at 1 mg/kg, iv. The settings on record: in vivo. The format is ADME, organism-based.
Data set [6] in a line: Cmax in Sprague-Dawley rat at 1 mg/kg, iv. The class given is ADME, organism-based. Particulars: in vivo. Also noted: dose 1 mg/kg, route iv.
A short description of data set [7]: AUCinfinity in Sprague-Dawley rat at 5 mg/kg, po. The format is ADME, organism-based. Also noted: time infinity, dose 5 mg/kg, route po. Particulars: in vivo.
The target of data set [8] is T1, Sodium/glucose cotransporter 2 (Homo sapiens, UniProt P31639).
T1 sequence (P31639 whole entry): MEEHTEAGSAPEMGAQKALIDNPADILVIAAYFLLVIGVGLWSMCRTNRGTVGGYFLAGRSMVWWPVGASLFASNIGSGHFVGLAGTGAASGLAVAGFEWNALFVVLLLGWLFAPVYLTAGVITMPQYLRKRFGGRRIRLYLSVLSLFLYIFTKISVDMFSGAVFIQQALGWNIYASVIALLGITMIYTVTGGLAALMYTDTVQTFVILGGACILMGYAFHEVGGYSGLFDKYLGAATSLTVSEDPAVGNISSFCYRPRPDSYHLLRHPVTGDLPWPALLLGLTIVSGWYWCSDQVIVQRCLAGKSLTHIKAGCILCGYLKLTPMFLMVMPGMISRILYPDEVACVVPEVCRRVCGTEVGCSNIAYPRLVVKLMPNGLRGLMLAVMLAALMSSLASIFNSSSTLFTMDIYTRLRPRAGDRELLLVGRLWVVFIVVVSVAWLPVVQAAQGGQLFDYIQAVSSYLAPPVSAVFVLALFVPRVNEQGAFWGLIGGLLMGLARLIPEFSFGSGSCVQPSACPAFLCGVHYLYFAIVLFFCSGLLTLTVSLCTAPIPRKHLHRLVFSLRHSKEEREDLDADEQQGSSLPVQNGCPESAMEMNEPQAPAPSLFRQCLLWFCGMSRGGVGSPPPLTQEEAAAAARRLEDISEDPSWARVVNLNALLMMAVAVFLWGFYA
In words: Inhibition of human SGLT2 expressed in CHO cells by methyl-alpha-D-glucopyranoside assay. The format is cell-based.

Data set [9] is described as follows: Selectivity index, ratio of IC50 for human SGLT1 expressed in CHO cells to IC50 for human SGLT2 expressed in CHO cells. The class given is cell-based.
Data set [10] has as its target T2, Sodium/glucose cotransporter 1 (Homo sapiens, UniProt P13866).
T2 sequence (P13866 whole entry): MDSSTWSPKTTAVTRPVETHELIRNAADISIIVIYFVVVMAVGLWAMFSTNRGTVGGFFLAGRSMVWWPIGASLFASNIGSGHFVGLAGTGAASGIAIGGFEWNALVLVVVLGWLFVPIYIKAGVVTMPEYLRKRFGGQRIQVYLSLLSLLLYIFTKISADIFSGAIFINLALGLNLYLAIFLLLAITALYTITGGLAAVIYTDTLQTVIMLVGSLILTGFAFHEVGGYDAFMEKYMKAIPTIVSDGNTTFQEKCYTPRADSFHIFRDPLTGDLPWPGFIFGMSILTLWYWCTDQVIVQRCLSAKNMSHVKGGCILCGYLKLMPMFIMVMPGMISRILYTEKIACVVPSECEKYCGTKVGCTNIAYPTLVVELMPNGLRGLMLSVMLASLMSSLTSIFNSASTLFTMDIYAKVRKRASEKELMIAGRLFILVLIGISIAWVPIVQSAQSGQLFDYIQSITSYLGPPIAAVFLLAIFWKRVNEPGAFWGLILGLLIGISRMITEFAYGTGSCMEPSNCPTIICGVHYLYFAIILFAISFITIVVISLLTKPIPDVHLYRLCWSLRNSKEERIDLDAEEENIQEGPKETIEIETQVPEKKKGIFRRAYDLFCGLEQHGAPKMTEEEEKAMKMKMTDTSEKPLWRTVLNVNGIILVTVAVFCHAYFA
Put plainly: Inhibition of human SGLT1 expressed in CHO cells by methyl-alpha-D-glucopyranoside assay. The class given is cell-based.

A short description of data set [11]: Metabolic stability in mouse by LC-MS/MS analysis. The settings on record: read-out: Stability. The format is ADME.
Data set [12] deals with Mus musculus. In words: Antidiabetic activity in type 2 diabetic db/db mouse assessed as decrease in hemoglobin A1c level at 0.05 to 0.5 mg/kg for 5 weeks. Particulars: dose 0.05-0.5 mg/kg. The format is functional, organism-based.
Data set [13] has as its system Rattus norvegicus. In words: Increase in urinary glucose excretion in oral-dosed normal Sprague-Dawley rat. Particulars: Urine, dose 0.1-1 mg/kg. The format is functional, organism-based.
For data set [14], the system named is Mus musculus. Put plainly: Antidiabetic activity in type 2 diabetic db/db mouse assessed as decrease in blood glucose level at 0.05 to 0.5 mg/kg for 5 weeks. The class given is functional, organism-based. The settings on record: dose 0.05-0.5 mg/kg.
Data set [15] in a line: Cmax in Sprague-Dawley rat at 5 mg/kg, po. More on the design: dose 5 mg/kg, route po. The settings on record: in vivo. The format is ADME, organism-based.
For data set [16], the system named is Rattus norvegicus. Put plainly: Antidiabetic activity in STZ-induced rat model of type 1 diabetes assessed as decrease in blood glucose level at 0.05 to 0.5 mg/kg for 5 weeks. The format is functional, organism-based. The settings on record: dose 0.05-0.5 mg/kg.
Data set [17] has as its system Rattus norvegicus. In words: Antidiabetic activity in STZ-induced rat model of type 1 diabetes assessed as decrease in hemoglobin A1c level at 0.05 to 0.5 mg/kg for 5 weeks. The format is functional, organism-based. The settings on record: dose 0.05-0.5 mg/kg.
A short description of data set [18]: Terminal elimination half life in Sprague-Dawley rat at 5 mg/kg, po. The format is ADME, organism-based. The settings on record: in vivo, read-out: beta t1/2 (converted).

Active and inactive are the calls of the source. The calls are words filed in the database; no cut-off is given here.

Take `CCOc1ccc(Cc2cc([C@@H]3O[C@H](CO)[C@@H](O)[C@H](O)[C@H]3O)ccc2Cl)cc1` [DAPAGLIFLOZIN]: the bioavailability in [1] is 88.4%. Moreover, in data set [2], the half-life is 174 min. Further, the time of peak concentration (Tmax) was 40.2 min in data set [3] and 4.8 min in data set [5]. Also, the figures for the AUC(0-inf) in [4] and in data set [7] were 3010 ng·h/mL and 13300 ng·h/mL, respectively. The peak concentration (Cmax) in [6] stood at 1300 ng/mL.

As for `Cc1ccc(Cc2cc([C@@H]3O[C@H](CO)[C@@H](O)[C@H](O)[C@H]3O)c3c(c2Cl)OCC3)cc1`, the IC50 in data set [8] is 1.44 nM.

Turning to `OC[C@H]1O[C@@H](c2cc(Cc3ccc(C4CCCC4)cc3)c(Cl)c3c2CCO3)[C@H](O)[C@@H](O)[C@@H]1O`, in data set [9], the Ratio IC50 was 8560. Further, it took 9930 nM to reach half-maximal inhibition in data set [10] (IC50).

As to `CCc1ccc(Cc2cc([C@@H]3O[C@H](CO)[C@@H](O)[C@H](O)[C@H]3O)c3c(c2Cl)OCC3)cc1`, in data set [11], the half-life was determined as 44.5 min. In addition, the Ratio IC50 in [9] worked out at 772. Besides, in data set [10], the IC50 came out at 556 nM.

As to `CCCOc1ccc(Cc2cc([C@@H]3O[C@H](CO)[C@@H](O)[C@H](O)[C@H]3O)c3c(c2Cl)OCC3)cc1`, in [9], the Ratio IC50 amounted to 5150. Half-maximal inhibition in [10] (IC50) required 6280 nM.

Take `COc1ccc(Cc2cc([C@@H]3O[C@H](CO)[C@@H](O)[C@H](O)[C@H]3O)c3c(c2Br)CCC3)cc1`: the Ratio IC50 in data set [9] was 35.

In the case of `COc1ccc(Cc2cc([C@@H]3O[C@H](CO)[C@@H](O)[C@H](O)[C@H]3O)c3c(c2Cl)OCC3)cc1`, the half-life in data set [11] was > 120 min. The Ratio IC50 in data set [9] came to 261. For the same molecule, in data set [10], half-maximal inhibition (IC50) required 400 nM.

On to `CCCc1ccc(Cc2cc([C@@H]3O[C@H](CO)[C@@H](O)[C@H](O)[C@H]3O)c3c(c2Cl)OCC3)cc1`, for which, in [9], the Ratio IC50 was 1170. Moreover, in [10], the IC50 was 1370 nM.

Consider `COc1ccc(Cc2cc3c(c([C@@H]4O[C@H](CO)[C@@H](O)[C@H](O)[C@H]4O)c2)CCC3)cc1`, for which, in data set [8], the IC50 was determined as 7.44 nM.

Turning to `C=Cc1ccc(Cc2cc([C@@H]3O[C@H](CO)[C@@H](O)[C@H](O)[C@H]3O)c3c(c2Cl)OCC3)cc1`, the half-life in data set [11] turned out to be 57 min. Further, the Ratio IC50 in data set [9] turned out to be 441.

Take `COc1ccc(Cc2cc([C@@H]3O[C@H](CO)[C@@H](O)[C@H](O)[C@H]3O)c3c(c2Cl)CCC3)cc1`: the half-life in data set [11] is 30.9 min.

`COc1ccc(Cc2cc([C@@H]3O[C@H](CO)[C@@H](O)[C@H](O)[C@H]3O)c3c(c2Cl)CCO3)cc1`: the half-life in data set [11] was 42.5 min. The Ratio IC50 in [9] worked out at 20.

Turning to `COc1ccc(Cc2cc([C@@H]3O[C@H](CO)[C@@H](O)[C@H](O)[C@H]3O)c3c(c2Cl)CCCO3)cc1`, in data set [11], the half-life is 37.6 min. Further, the Ratio IC50 in [9] worked out at 17.

As to `CC(C)c1ccc(Cc2cc([C@@H]3O[C@H](CO)[C@@H](O)[C@H](O)[C@H]3O)c3c(c2Cl)OCC3)cc1`, 4940 nM corresponded to half-maximal inhibition in [10] (IC50).

For `COc1ccc(Cc2cc([C@@H]3O[C@H](CO)[C@@H](O)[C@H](O)[C@H]3O)c3c(c2C)CCC3)cc1`, the half-life in data set [11] turned out to be 20.3 min.

In turn, `OC[C@H]1O[C@@H](c2cc(Cc3ccc(C4CC4)cc3)c(Cl)c3c2CCO3)[C@H](O)[C@@H](O)[C@@H]1O` [ENAVOGLIFLOZIN] displayed a bioavailability in data set [1] of 77.4%. Moreover, the half-life in [11] was 103 min; in data set [2] it was 276 min; in [18], 294 min. Besides, the outcome with Mus musculus [12], in the data set with Rattus norvegicus [13], in the data set on Mus musculus [14], in the data set on Rattus norvegicus [16] and with Rattus norvegicus [17] was Active. Further, the values for the Cmax in [15] and in data set [6] were 2340 ng/mL and 3300 ng/mL, respectively. For the same molecule, the Ratio IC50 in data set [9] was determined as 780. This molecule also yielded an IC50 in data set [10] of 359 nM. Moreover, the time of peak concentration (Tmax) in [3] worked out at 15 min; in data set [5], 4.8 min. For the same molecule, the AUC(0-inf) in [4] worked out at 4180 ng·h/mL; in data set [7] it was 16200 ng·h/mL.

Consider `CCOc1ccc(Cc2cc([C@@H]3O[C@H](CO)[C@@H](O)[C@H](O)[C@H]3O)c3c(c2Cl)OCC3)cc1`, for which the half-life in data set [11] was 111 min. Also, in [9], the Ratio IC50 worked out at 1410. Besides, the midpoint of inhibition in [10], the IC50, lay at 2140 nM.

The record behind these values is ChEMBL document CHEMBL5143532, “Discovery of GCC5694A: A potent and selective sodium glucose co-transporter 2 inhibitor for the treatment of type 2 diabetes” (Bioorg Med Chem Lett, 2022).
